From patent publication US11420944B2, “Voltage-dependent t-type calcium channel blocker” (Nippon Chemiphar Co., Ltd., priority 2016, dated 2022) come the findings set out here.

SMILES strings stand for the structures. Structures can show the parent of a compound that is named as a salt.

T1 sequence (O95180 whole entry): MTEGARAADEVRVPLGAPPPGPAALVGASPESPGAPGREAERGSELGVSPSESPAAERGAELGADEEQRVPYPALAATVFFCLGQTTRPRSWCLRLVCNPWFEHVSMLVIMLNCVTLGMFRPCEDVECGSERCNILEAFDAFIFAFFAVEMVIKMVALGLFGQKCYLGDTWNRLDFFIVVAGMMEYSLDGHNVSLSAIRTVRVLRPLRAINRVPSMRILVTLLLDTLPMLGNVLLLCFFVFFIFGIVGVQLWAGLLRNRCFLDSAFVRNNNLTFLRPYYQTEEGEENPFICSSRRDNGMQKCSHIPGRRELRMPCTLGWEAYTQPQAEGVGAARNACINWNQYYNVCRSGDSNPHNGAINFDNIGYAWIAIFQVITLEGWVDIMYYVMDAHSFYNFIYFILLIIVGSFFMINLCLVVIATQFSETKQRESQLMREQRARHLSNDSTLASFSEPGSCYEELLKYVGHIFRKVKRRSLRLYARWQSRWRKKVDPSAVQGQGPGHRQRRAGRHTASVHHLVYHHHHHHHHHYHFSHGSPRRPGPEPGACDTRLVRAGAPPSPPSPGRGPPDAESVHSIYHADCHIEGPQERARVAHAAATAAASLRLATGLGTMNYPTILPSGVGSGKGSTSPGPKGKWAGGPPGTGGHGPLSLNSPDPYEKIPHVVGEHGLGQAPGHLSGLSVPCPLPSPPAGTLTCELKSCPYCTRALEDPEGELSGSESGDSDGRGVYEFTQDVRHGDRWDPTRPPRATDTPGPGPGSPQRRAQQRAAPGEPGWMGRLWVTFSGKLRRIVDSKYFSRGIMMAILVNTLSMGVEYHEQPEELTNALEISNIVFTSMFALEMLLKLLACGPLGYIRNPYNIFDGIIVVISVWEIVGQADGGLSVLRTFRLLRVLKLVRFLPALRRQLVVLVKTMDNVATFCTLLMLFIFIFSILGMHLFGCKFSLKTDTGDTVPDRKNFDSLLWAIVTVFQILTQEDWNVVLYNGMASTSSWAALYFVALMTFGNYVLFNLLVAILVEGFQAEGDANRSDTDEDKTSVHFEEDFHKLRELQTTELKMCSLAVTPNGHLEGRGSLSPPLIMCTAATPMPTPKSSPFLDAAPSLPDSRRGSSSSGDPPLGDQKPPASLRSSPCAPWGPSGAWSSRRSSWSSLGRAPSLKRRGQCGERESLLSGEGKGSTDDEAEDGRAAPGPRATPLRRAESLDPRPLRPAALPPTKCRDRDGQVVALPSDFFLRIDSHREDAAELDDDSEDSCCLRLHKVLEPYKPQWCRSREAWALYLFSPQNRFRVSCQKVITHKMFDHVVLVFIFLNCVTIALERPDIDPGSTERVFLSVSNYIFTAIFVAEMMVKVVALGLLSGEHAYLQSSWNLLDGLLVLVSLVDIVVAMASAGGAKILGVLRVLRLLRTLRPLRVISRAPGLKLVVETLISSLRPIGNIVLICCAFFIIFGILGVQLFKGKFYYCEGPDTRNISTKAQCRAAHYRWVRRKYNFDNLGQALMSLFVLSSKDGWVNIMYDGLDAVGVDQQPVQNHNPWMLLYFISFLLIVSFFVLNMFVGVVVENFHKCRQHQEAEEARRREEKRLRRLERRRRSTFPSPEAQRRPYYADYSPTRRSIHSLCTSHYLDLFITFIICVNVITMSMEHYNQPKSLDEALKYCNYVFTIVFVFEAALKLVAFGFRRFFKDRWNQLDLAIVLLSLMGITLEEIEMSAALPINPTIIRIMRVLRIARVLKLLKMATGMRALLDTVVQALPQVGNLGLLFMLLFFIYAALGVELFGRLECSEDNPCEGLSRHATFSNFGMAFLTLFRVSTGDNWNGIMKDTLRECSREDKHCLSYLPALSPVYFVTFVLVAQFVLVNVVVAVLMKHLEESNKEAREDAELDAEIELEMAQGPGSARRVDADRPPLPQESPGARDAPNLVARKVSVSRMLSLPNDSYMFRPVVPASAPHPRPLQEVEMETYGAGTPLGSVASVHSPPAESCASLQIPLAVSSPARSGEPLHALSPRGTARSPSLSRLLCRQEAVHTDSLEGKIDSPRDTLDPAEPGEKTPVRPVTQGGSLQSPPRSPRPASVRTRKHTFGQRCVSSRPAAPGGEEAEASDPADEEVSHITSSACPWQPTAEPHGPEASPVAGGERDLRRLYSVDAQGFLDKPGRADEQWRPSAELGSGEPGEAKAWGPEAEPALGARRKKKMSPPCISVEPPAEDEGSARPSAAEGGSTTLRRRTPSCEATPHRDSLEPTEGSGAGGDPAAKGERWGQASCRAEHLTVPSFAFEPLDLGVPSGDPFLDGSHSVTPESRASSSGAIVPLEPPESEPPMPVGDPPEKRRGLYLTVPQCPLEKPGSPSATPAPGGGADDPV

The first assay has as its target T1, human Cav3.2 channels (Homo sapiens, UniProt O95180).
T1 construct: expressed in transfected cells; host or cells: HEK293 cells (ATCC No. CRL-1573), plasmid pcDNA3.1(+)
The assay is described as follows: Intracellular calcium concentration measurement (Fluo-4 AM) in stable cells expressing human Cav3.2 channels, buffer A / buffer B. As to conditions: Table 1; buffer A, equilibrium potential of potassium −92 mV; read-out: Inhibitory action of buffer A (inactivated state). Type of assay: cell-based. An excerpt:
Construction of Stable Cells Expressing Human Cav3.2 Channels
(1) A sequence produced by incorporating HindIII site and kozak sequence (GCCACC) into the 5′-terminal side of human Cav3.2 channel ORF (Open Reading Frame) gene and incorporating Kpnl site into the 3′-terminal side was incorporated into pcDNA3.1(+) (Thermo-Fisher Scientific, Inc., #V790-20), and the plasmid was transfected into HEK293 cells (ATCC No. CRL-1573) according to the protocol of FuGENE (registered trademark) HD Transfection Reagent (PROMEGA #E2311).
(2) Method for Measuring Intracellular Calcium Concentration
In the present measurement system, buffer A and buffer B having different potassium ion concentrations were used in order to evaluate the state-dependent Cav3.2 inhibitory action of a test compound.
Stable cell line expressing human Cav3.2 channels, which had been produced in (1), was seeded in a 96-well plate using DMEM medium including 10% FBS, and the cells were cultured for 48 hours under the conditions of 37° C. and 5% CO2. Subsequently, the medium was removed, and various wells that had been washed with a base buffer were treated with 80 μL of a fluorescent dye solution containing a mixed liquid of 22 μg of calcium fluorescence indicator Fluo-4 AM (Dojindo Laboratories Co., Ltd., #F311), 20 μL of DMSO, […] of 10% Pluronic F-127 (Thermo-Fisher Scientific, Inc., #P6866), and 4 mL of a base buffer. The cells were left to stand for 45 minutes at room temperature in the dark, and then the cells were washed with buffer A or buffer B. Solutions having various test compound concentrations and respectively containing buffer A or buffer B were added to the respective wells, the respective solutions containing DMSO at the same final concentration as that of the test compound as negative control, or containing the test compound dissolved in 100% DMSO at a final concentration of 0.1%. The cells were left to stand for another 15 minutes at room temperature in the dark, and the cells were analyzed using the following method using a microplate reader, EnVision (PerkinElmer, Inc.). First, the background fluorescence for each well was measured, subsequently an ionophore was added to the well, and the fluorescence of the baseline was measured. Subsequently, buffer A or buffer B containing added KCl at a concentration of 83.8 mM or 91.8 mM was added to each well, and an increase in fluorescence caused by a calcium influx generated by that stimulus was measured for 10 seconds. The percentage inhibition was calculated from the maximum fluorescence increment from the baseline, and the logarithmic value of the test compound concentration and the inhibitory activity were plotted to calculate the IC50 value. The analysis was carried out by measuring the fluorescence at 510 nm emitted when the cells were irradiated with exciting light at 485 nm.
Base buffer: 140 mM NaCl, 5 mM KCl, 1 mM MgCl2, 0.5 mM CaCl2, 10 mM Glucose, and 10 mM HEPES, pH 7.3
Buffer A: Equilibrium potential of potassium: −92 mV
(Calcium flux is commonly read through the fluorescence of an indicator in the cells.)
With `C[C@@H](NC(=O)[C@@H]1CCN(CCC(C)(C)C)C1)c1ccc(OCC(F)(F)F)s1` [Example 18, (R)-1-(3,3-dimethylbutyl)-N—((R)-1-(5-(2,2,2-trifluoroethoxy)thiophen-2-yl)ethyl)pyrrolidine-3-carboxamide hydrochloride], the IC50 is 1000 to 10000 nM.

On to `C[C@H](NC(=O)C1CC1c1nc2ccccc2[nH]1)c1ccc(OCC(F)(F)F)s1` (single isomer, unassigned) [Example 2B], for which the IC50 is 1000 to 10000 nM.

In the case of `C[C@@H](NC(=O)[C@@H]1CCN(CC(=O)Nc2nccs2)C1)c1ccc(OCC(F)(F)F)s1` [Example 16, (R)-1-(2-oxoethyl-2-(thiazol-2-ylamino)ethyl)-N—((R)-1-(5-(2,2,2-trifluoroethoxy)thiophen-2-yl)ethyl)pyrrolidine-3-carboxamide], the IC50 fell in the range of 100 to 1000 nM.

Still in this assay, the particulars now being: Table 1; buffer B, equilibrium potential of potassium −110 mV; read-out: Inhibitory action of buffer B (resting state or closed state).
In the case of `C[C@@H](NC(=O)[C@@H]1CCN(CCC(C)(C)C)C1)c1ccc(OCC(F)(F)F)s1` [Example 18, (R)-1-(3,3-dimethylbutyl)-N—((R)-1-(5-(2,2,2-trifluoroethoxy)thiophen-2-yl)ethyl)pyrrolidine-3-carboxamide hydrochloride], the IC50 fell in the range of 1000 to 10000 nM.

In the case of `C[C@H](NC(=O)C1CC1c1nc2ccccc2[nH]1)c1ccc(OCC(F)(F)F)s1` (single isomer, unassigned) [Example 2B], the IC50 was more than 10000 nM.

Regarding `C[C@@H](NC(=O)[C@@H]1CCN(CC(=O)Nc2nccs2)C1)c1ccc(OCC(F)(F)F)s1` [Example 16, (R)-1-(2-oxoethyl-2-(thiazol-2-ylamino)ethyl)-N—((R)-1-(5-(2,2,2-trifluoroethoxy)thiophen-2-yl)ethyl)pyrrolidine-3-carboxamide], the IC50 is 1000 to 10000 nM.

Staying with this assay, now noted: Tables 2 to 6; buffer A, equilibrium potential of potassium −92 mV; read-out: Inhibitory action of buffer A (inactivated state).
As to `C[C@@H](NC(=O)[C@@H]1CCN(CC(=O)Nc2cnccn2)C1)c1ccc(OCC(F)(F)F)s1` [Example 37, (R)-1-(2-oxo-2-(pyrazin-2-ylamino)ethyl)-N—((R)-1-(5-(2,2,2-trifluoroethoxy)thiophen-2-yl)ethyl)pyrrolidine-3-carboxamide], the IC50 is 1000 to 10000 nM.

Turning to `C[C@@H](NC(=O)C1CC1c1cc(F)cc(F)c1)c1ccc(OCC(F)(F)F)s1` (single isomer, unassigned) [Example 19A], the IC50 was more than 10000 nM.

Regarding `C[C@@H](NC(=O)C1CC1c1nc2cc(Cl)cnc2[nH]1)c1ccc(OCC(F)(F)F)s1` (single isomer, unassigned) [Example 85B], the IC50 is more than 10000 nM.

With `CC(NC(=O)[C@H]1C[C@@H]1c1nc2ccccc2[nH]1)c1nc2ccc(F)cc2[nH]1` (single isomer, unassigned) [Example 127B], the IC50 fell in the range of 1000 to 10000 nM.

`CCn1c([C@H]2C[C@@H]2C(=O)N[C@H](C)c2cc3ccc(F)cc3o2)nc2ccccc21` [Example 110, (1S,2S)-2-(1-ethyl-1H-benzo[d]imidazol-2-yl)-N—((R)-1-(6-fluorobenzofuran-2-yl)ethyl)cyclopropane-1-carboxamide]: the IC50 was not above 100 nM.

Regarding `C[C@@H](NC(=O)C1CC1c1nc2ccccc2[nH]1)c1ccc(C(=O)N2CCN(C)CC2)s1` (stereo in doubt) [Example 68, Trans-2-(1H-benzo[d]imidazol-2-yl)-N—((R)-1-(5-(4-methylpiperazine-1-carbonyl)thiophen-2-yl)ethyl)cyclopropane-1-carboxamide], the IC50 was 1000 to 10000 nM.

Regarding `C[C@@H](NC(=O)[C@H]1C[C@@H]1c1nc2ccccc2[nH]1)c1ccc(C(=O)N(C)C)s1` [Example 84, 5-((R)-1-((1S,2S)-2-(1H-benzo[d]imidazol-2-yl)cyclopropane-1-carboxamido)ethyl)-N,N-dimethylthiophene-2-carboxamide], the IC50 lay in the range of 1000 to 10000 nM.

As to `C[C@@H](NC(=O)C1CC1c1nc2cc(Cl)ccc2o1)c1cc2cc(F)ccc2o1` (single isomer, unassigned) [Example 108A], the IC50 was in the range of 100 to 1000 nM.

For `Cc1ccc2nc(C3CC3C(=O)N[C@H](C)c3ccc(OCC(F)(F)F)s3)[nH]c2n1` (single isomer, unassigned) [Example 106B], the IC50 is 1000 to 10000 nM.

For `C[C@@H](NC(=O)[C@H]1C[C@@H]1c1nc2ccccc2[nH]1)c1ccc2c(c1)OCO2` [Example 55, (1S,2S)—N—((R)-1-(benzo[d][1,3]dioxol-5-yl)ethyl)-2-(1H-benzo[d]imidazol-2-yl)cyclopropane-1-carboxamide], the IC50 lay within 100 to 1000 nM.

`C[C@@H](NC(=O)C1CC1c1nc2cc(Cl)ccc2o1)c1cc2cc(F)ccc2o1` (single isomer, unassigned) [Example 108B]: the IC50 is 100 to 1000 nM.

`C[C@@H](NC(=O)[C@H]1C[C@@H]1c1nc2ccccc2[nH]1)c1cc2cc(C#N)ccc2o1` [Example 107, (1S,2S)-2-(1H-benzo[d]imidazol-2-yl)-N—((R)-1-(5-cyanobenzofuran-2-yl)ethyl)cyclopropane-1-carboxamide]: the IC50 was in the range of 100 to 1000 nM.

Consider `C[C@@H](NC(=O)[C@H]1C[C@@H]1c1nc2ccccc2[nH]1)c1ccc2c(c1)OCCO2` [Example 70, (1S,2S)-2-(1H-benzo[d]imidazol-2-yl)-N—((R)-1-(2,3-dihydrobenzo[b][1,4]dioxin-6-yl)ethyl)cyclopropane-1-carboxamide], for which the IC50 was 1000 to 10000 nM.

Regarding `COc1ccc2oc([C@@H](C)NC(=O)[C@H]3C[C@@H]3c3nc4ccccc4[nH]3)cc2c1` [Example 79, (1S,2S)-2-(1H-benzo[d]imidazol-2-yl)-N—((R)-1-(5-methoxybenzofuran-2-yl)ethyl)cyclopropane-1-carboxamide], the IC50 lay in the range of 100 to 1000 nM.

Consider `C[C@@H](NC(=O)C1CC1c1ccc2cnn(C)c2c1)c1cc2cc(F)ccc2o1` (single isomer, unassigned) [Example 103A], for which the IC50 lay in the range of 100 to 1000 nM.

`C[C@@H](NC(=O)C1CC1c1nc2cc(Cl)ccc2[nH]1)c1nc(C2CC2)no1` (single isomer, unassigned) [Example 77B]: the IC50 fell in the range of 1000 to 10000 nM.

On to `C[C@@H](NC(=O)C1CC1c1c[nH]c2ccccc12)c1cc2cc(F)ccc2o1` (single isomer, unassigned) [Example 98B], for which the IC50 lay in the range of 100 to 1000 nM.

Consider `C[C@@H](NC(=O)C1CC1c1cn(C)c2ccccc12)c1ccc(OCC(F)(F)F)s1` (single isomer, unassigned) [Example 29A], for which the IC50 is more than 10000 nM.

On to `C[C@@H](NC(=O)C1CC1c1nc2cc(Cl)ccc2[nH]1)c1nc(C2CC2)no1` (single isomer, unassigned) [Example 77A], for which the IC50 was in the range of 100 to 1000 nM.

Consider `C[C@@H](NC(=O)[C@@H]1CCN(c2ccc(C(F)(F)F)cn2)C1)c1ccc(OCC(F)(F)F)s1` [Example 41, (R)—N—((R)-1-(5-(2,2,2-trifluoroethoxy)thiophen-2-yl)ethyl)-1-(5-(trifluoromethyl)pyridin-2-yl)pyrrolidine-3-carboxamide], for which the IC50 is 1000 to 10000 nM.

Take `O=C(NCc1cc2cc(F)ccc2o1)[C@H]1C[C@@H]1c1nc2ccccc2[nH]1` [Example 113, (1S,2S)-2-(1H-benzo[d]imidazol-2-yl)-N-((5-fluorobenzofuran-2-yl)methyl)cyclopropane-1-carboxamide]: the IC50 is not above 100 nM.

Turning to `CCn1c(C2CC2C(=O)N[C@H](C)c2cnc(OCC(F)(F)F)s2)nc2ccccc21` (single isomer, unassigned) [Example 57B], the IC50 is 1000 to 10000 nM.

As for `C[C@@H](NC(=O)C1CC1c1ccc2ccccc2n1)c1ccc(OCC(F)(F)F)s1` (single isomer, unassigned) [Example 34B], the IC50 fell in the range of 100 to 1000 nM.

Turning to `C[C@@H](NC(=O)C1CC1c1cc(F)cc(F)c1)c1ccc(OCC(F)(F)F)s1` (single isomer, unassigned) [Example 19B], the IC50 was more than 10000 nM.

In the case of `O=C(N[C@@H](c1ccc(C(F)(F)F)s1)C1CCCCC1)[C@H]1C[C@@H]1c1nc2ccccc2[nH]1` [Example 59, (1S,2S)-2-(1H-benzo[d]imidazol-2-yl)-N—((R)-cyclohexyl(5-(trifluoromethyl)thiophen-2-yl)methyl)cyclopropane-1-carboxamide], the IC50 lay in the range of 100 to 1000 nM.

Take `C[C@@H](NC(=O)[C@H]1C[C@@H]1c1nc2cc(F)ccc2[nH]1)c1ccc(OCC(F)(F)F)s1` [Example 118, (1S,2S)-2-(5-fluoro-1H-benzo[d]imidazol-2-yl)-N—((R)-1-(5-(2,2,2-trifluoroethoxy)thiophen-2-yl)ethyl)cyclopropane-1-carboxamide]: the IC50 was not above 100 nM.

Take `C[C@@H](NC(=O)C1CC1c1nc2ccccc2[nH]1)c1ccc(C(=O)N2CCCC2(C)C)s1` (stereo in doubt) [Example 67, Trans-2-(1H-benzo[d]imidazol-2-yl)-N—((R)-1-(5-(2,2-dimethylpyrrolidine-1-carbonyl)thiophen-2-yl)ethyl)cyclopropane-1-carboxamide]: the IC50 lay in the range of 1000 to 10000 nM.
